Measurements from patent US20100256014A1, “NOVEL AS160-LIKE PROTEIN, TEST SYSTEMS, METHODS AND USES INVOLVING IT FOR THE IDENTIFICATION OF DIABETES TYPE 2 THERAPEUTICS” (priority 2007, published 2010).

Legend:
Assay type in all cases: cell-based, rat
AKT (Ser 473) [1] = test: Western blot of AKT phosphorylation (Ser 473)
Procedure: For Western blot analysis proteins were separated on SDS-PAGE gels (4-12% resolving gel, Invitrogen), transferred to PVDF membranes (Roche) and blocked with Roti-Block® (Roth) for 1 hour. Membranes were incubated with primary antibodies overnight. The anti-AS160 antibody was from Upstate. Membranes were washed in TBST and incubated with the appropriate secondary horseradish peroxidase conjugated antibody (Santa Cruz). Immunoreactive bands were visualized with LumiLight (Roche) and detected with Lumi-lmager (Böhringer Ingelheim).
In order to examine tetracycline- and insulin-dependent expression of isoform2 of AS160 protein in L6-GLUT4myc cells containing AS160-like, a western blot analysis was performed. The expression of AS160-like protein was induced with 1 μg/ml doxycyclin for 48 hours as described above. Subsequently, the cells were stimulated with insulin (5 nM to 50 nM; Sanofi-Aventis) for 20 minutes. Cell extracts were prepared, separated via SDS-PAGE and transferred to a PVDF membrane as described above.
The AKT inhibitor Calb. had no effect on the phosphorylation of AKT (Ser 473) (FIG. 11A). […] Phosphorylation of AKT on Ser 473 was detected with a phospho-specific antibody from Biosource (Cat No.: 44-621G).

L6-GLUT4myc cells [2] = test: Uptake of 2-deoxyglucose in L6-GLUT4myc cells with tet-inducible isoform2 of AS160
Procedure: For all examples […]T4myc cells containing isoform2 of AS160 were grown in MEMα (PAN) supplemented with 10% fetal calf serum (FCS) (PAA, tet-free), 2 μg/ml blasticidin (Calbiochem), 0.5 μg/ml puromycin (InvivoGen), 200 μg/ml hygromycin (Invitrogen). Expression of isoform2 of AS160 was induced with 1 μg/ml doxycyclin (Sigma). L6-wildtype (wt) (ATCC: CRL-1458) cells were grown in MEMα+GlutaMax (Gibco) supplemented with 10% FCS (PAA, tet-free) and 1% penicillin/streptomycin (PAA). […]T4myc cells were grown in MEMα+GlutaMax (Gibco) supplemented with 10% FCS (PAA, tet-free), 1% penicillin/streptomycin (PAA) and 2 μg/ml blasticidin (Calbiochem). All cells were grown at 37° C. and 5% CO2. […]T4myc cells containing isoform2 of AS160 were incubated in starve medium (MEMα) 3-4 hours prior to each experiment. To examine glucose uptake of the cells, the respective cells were plated in 96 well Cytostar-T scintillating microplates (Amersham). After 48 hours cells were serum-starved (3-4 hours) and treated with inhibitors as indicated. Uptake of 2-deoxyglucose (0.01 MBq per well, Amersham) was performed as already described (Voss et al., 2005). Nonspecific uptake was determined in the presence of 40 μM cytochalasin B (Calbiochem). This value was subtracted from all other values. Measurement occurred in a Wallac Microbeta counter (Perkin Elmer). Uptake of 2-deoxyglucose is presented as counts per […] (cpm).

L6-GLUT4myc cells [3] = test: Tetracycline-inducible GFP expression (functionality of the tet-repressor); conditions: pCDNA5/TO-GFP; addition of doxycyclin; data not shown
Procedure: L6-GLUT4myc cells containing AS160-like were grown in MEMα (PAN) supplemented with 10% fetal calf serum (FCS) (PAA, tet-free), 2 μg/ml blasticidin (Calbiochem), 0.5 μg/ml puromycin (InvivoGen), 200 μg/ml hygromycin (Invitrogen). Functionality of the tet-repressor was controlled with a tetracycline-inducible GFP expression plasmid (pCDNA5/TO-GFP). In the absence of tetracycline (or doxycyclin) only a small number of cells express GFP. Addition of doxycyclin increases the number of GFP expressing cells about 10 fold (data not shown).

AKT (Ser 473) [4] = test: In-cell western, phospho-AKT
From the text: (§1) To study phosphorylation of AKT and AS160 the cells described in Example 2 were used. AS160 is activated by phosphorylation on critical motifs (RXRXXS/T). Known phospho-sites in AS160 are Ser 570, Ser 588, Thr 642 and Thr 751 (Sano et al., 2003). One of the kinases responsible for the activation of AS160 is AKT (Kane et al., 2002). In order to determine the activation status of the isoform2 of AS160 the In-cell western blot technique was used. This method allows the detection of specific proteins directly in 96 well plates without preparation of cell extracts. The specific antibody used in this assay recognizes the phosphorylated Thr 642 phosphorylation site of AS160 and AS160-like protein.
(§2) For this, cells were seeded into 96-well plates (black, Nunc) and grown for 48 hours. Cells were starved for 3-4 hours with MEMα (PAN) containing 2% horse serum (Cambrex). After removal of medium cells were fixed in 3.7% freshly prepared para-formaldehyde (Sigma) for 20 minutes. Cells were permeabilized with PBS+0.1% Triton-X-100. Blocking was performed with Odyssey blocking buffer (Licor) overnight at 4° C. Primary antibodies were incubated for 2 hours at room temperature. The anti-phosphoAKT (Ser 473, Cat No.: 44-621 G) and the anti-phosphoAS160 (Thr 642, Cat No.: 44-1071 G) were from Biosource. After incubation of the primary antibody, cells were washed with PBS+0.1% Tween20. The secondary anti-rabbit-IgG-800-CW antibody (Rockland Cat No.: 611-131-122) was incubated for 1 hour. For detection of DNA TO-PRO3 dye (Molecular Probes, Cat No.: T3605) was used. Fluorescence signals (FIG. 6) are presented as relative units (RU).

AS160 (Thr 642) = test: In-cell western, phospho-AS160
From the text: as §1, §2

GLUT4 = GLUT4 translocation, laser-scanning fluorescence microplate cytometry (ACUMEN)
Procedure: For this purpose, a technique suitable for screening of compounds was applied. Laser-scanning fluorescence microplate cytometry (ACUMEN technique, LIT) allows the distinct multiparametric analysis of single fluorescent cells in microplates (Bowen and Wylie, 2006). For laser-scanning fluorescence microplate cytometer (Acumen) cells were plated in 96 well plates (Biocat, black). Serum-starved cells were treated as indicated. Briefly, cells were fixed in 3.75% para-formaldehyde (Sigma) for 20 minutes. Subsequently, quenching occurred with […] NH4Cl. Cells were blocked with an adequate blocking solutions for a minimum of 1 hour. Primary antibody (monoclonal anti-myc 9E10, Santa Cruz, sc-40) was incubated for 1 hour. The secondary goat-anti mouse IgG (Alexa Fluor 488, Molecular Probes) was incubated in the presence of Sytox-orange for 1 hour (Bowen and Wylie, 2006).
Based on this highly sensitive procedure it is possible to screen various cell numbers for plasma-membrane based GLUT4-myc-display. Cells were counter-stained with a DNA dye (SytoxOrange) to confirm equal cell numbers.

GLUT4-myc = test: Immunofluorescence localization of GLUT4-myc; conditions: insulin 100 nM, 20 minutes; L6-GLUT4-myc-tetR-AS160-like
Procedure: Cells were grown on sterile cover slides in 12 well plates. Expression of isoform2 of AS160 was induced with doxycyclin treatment for 48 hours. Serum-starved cells were treated with 100 nM insulin for 20 minutes or were left untreated. After stimulation, cells were fixed in 3.75% para-formaldehyde (Sigma) for 20 minutes. Subsequently, cells were permeabilised with 0.1% TritonX100 in PBS (Icon Biomedicals) or left unpermeabilised (as indicated) for 5 minutes at room temperature. The permeabilisation procedure allows the detection of intracellular localized compartments. Membrane-bound proteins are visualized without permeabilising the cells. Blocking of cells occurred for a minimum of 1 hour in PBS+1% BSA (USB). Primary antibodies (monoclonal anti-myc, Santa Cruz, sc-40 and polyclonal anti-AS160 Upstate) were incubated overnight. The secondary antibodies used are anti-rabbit Alexa488 to detect isoform2 of AS160 and anti-mouse A546 to detect GLUT4-myc. Incubation occurred is for 1 hour (dark). Cells were mounted in 15 μl Dako Cytomation Fluorescent Mounting Medium (DakoCytomation), examined by confocal laser-scanning microscopy with Leica DM IRE2 and analyzed with Leica DM SDK software.

[5] = without expression of isoform 2 of AS160
[6] = metformin 800 μM overnight, normal and insulin-resistant conditions
[7] = with doxycyclin-induced expression of isoform 2 of AS160
[8] = high glucose plus insulin conditions
[9] = high glucose plus insulin overnight (25 mM glucose+10 nM insulin)

1 L-6-hydroxymethyl-chiro-inositol 2-(R)-2-O-methyl-3-O-octadecylcarbonate [AKT inhibitor Calb., reference compound]
effect on insulin-stimulated phosphorylation of AKT (Ser 473) (AKT (Ser 473) [1]; pre-incubation 1 hour (wortmannin 200 nM, AKT inhibitor Calb. 50 μM), then insulin 10 nM 20 minutes): no effect

NC(=O)c1ncn([C@@H]2O[C@H](CO)[C@@H](O)[C@H]2O)c1N [AICAR, 5-Aminoimidazole-4-carboxaide 1-beta-D-ribofuranoside, reference compound]
effect of expression of isoform 2 of AS160 on stimulated glucose uptake (L6-GLUT4myc cells [2]; with vs without isoform 2 of AS160): no additional effect | uptake of glucose (2-deoxyglucose), fold increase after stimulation (L6-GLUT4myc cells [2]; [5]): 1.5 fold

N#CC(=C(/N)Sc1ccccc1N)/C(C#N)=C(\N)Sc1ccccc1N [U0126, reference compound]
effect on uptake of glucose (L6-GLUT4myc cells [2]; U0126 10 μM, 20 μM, additional stimulation with 5 nM insulin, mainly in cells expressing isoform2 of AS160): significantly improved uptake of glucose

C[C@H]1c2cccc(O)c2C(O)=C2C(=O)[C@]3(O)C(O)=C(C(N)=O)C(=O)[C@@H](N(C)C)[C@@H]3[C@@H](O)[C@@H]21 [doxycyclin, reference compound]
increase of glucose uptake induced by doxycyclin (L6-GLUT4myc cells [2]; doxycyclin 48 hours, insulin 20 minutes, correlated with isoform2 of AS160 protein levels): dose-dependent manner | increase of the number of GFP expressing cells (L6-GLUT4myc cells [3]): about 10 fold

CN(C)C(=N)N=C(N)N [metformin, dimethylbiguanide, reference compound]
effect on activation of AKT (AKT (Ser 473) [4]; [6]): no effect | effect on activation of AS160 (AS160 (Thr 642); [6]): no effect

insulin
time at which the maximum of glucose uptake is observed (L6-GLUT4myc cells [2]; 50 nM insulin, time points 5, 15, 30 minutes): ≤ 5 min | uptake of glucose (2-deoxyglucose), fold increase after stimulation (L6-GLUT4myc cells [2]; [7]): up to 4 fold | phosphorylation of AKT (Ser 473) (AKT (Ser 473) [1]; insulin 5 nM to 50 nM, 20 minutes): induced the phosphorylation of AKT (Ser 473) | AKT phosphorylation signal compared to untreated conditions (normal Glc) (AKT (Ser 473) [4]; [8]): 72% | AKT (Ser 473) phosphorylation under insulin-resistant conditions (AKT (Ser 473) [4]; [9]): dose-dependent manner | AKT phosphorylation (Ser 473) (AKT (Ser 473) [4]; normal conditions, insulin 20 minutes): dose-dependent manner | AS160 phosphorylation signal compared to untreated conditions (normal Glc) (AS160 (Thr 642); [8]): 72% | AS160 (Thr 642) phosphorylation under insulin-resistant conditions (AS160 (Thr 642); [9]): dose-dependent manner | phosphorylation of full-length or isoform2 of AS160 (Thr 642) (AS160 (Thr 642); normal conditions, doxycyclin-induced cells, insulin 20 minutes): dose-dependent manner | increased translocation of GLUT4 to the plasma membrane (GLUT4; 100 nM insulin 20 minutes, doxycyclin-induced expression of AS160-like protein): ~15% | GLUT4 translocation (GLUT4; 100 nM insulin alone (no AS160-like expression)): slightly induced | localization of GLUT4-myc (GLUT4-myc): induces the translocation of GLUT4-myc to the plasma membrane

insulin like growth factor-1 [IGF-1]
uptake of glucose (2-deoxyglucose), fold increase after stimulation (L6-GLUT4myc cells [2]; [7]): up to 5 fold | uptake of glucose (2-deoxyglucose), fold increase after stimulation (L6-GLUT4myc cells [2]; [5]): 3 fold
